Experimental data from patent US10538555B2, “Macrocyclic inhibitors of the PD-1/PD-L1 and CD80(B7-1)/PD-L1 protein/protein interactions” (BRISTOL-MYERS SQUIBB COMPANY, priority 2014, dated 2020).
Read-outs that look alike come from different tables or passages of the source. *1 amine or outer side, *2 acyl side, *3 side chain or, on linkers, in order; H or OH if unused. Where a SMILES comes first, the peptide text is derived from it. Bridges are numbered along the chain shown (N, C = ends). [ ]: non-standard residue; d: D form. ξ: configuration not given here. Trp(1-CH2COOH) = N[C@@H](Cc1cn(CC(=O)O)c2ccccc12)C(=O)O; Phe(3,4,5-F3) = N[C@@H](Cc1cc(F)c(F)c(F)c1)C(=O)O; Phe(3,4-F2) = N[C@@H](Cc1ccc(F)c(F)c1)C(=O)O; Phe(4-F) = N[C@@H](Cc1ccc(F)cc1)C(=O)O; d(cisHyp) = O=C(O)[C@H]1C[C@@H](O)CN1; NMeY = CN[C@@H](Cc1ccc(O)cc1)C(=O)O; Hyp = O=C(O)[C@@H]1C[C@@H](O)CN1; NMeF = CN[C@@H](Cc1ccccc1)C(=O)O; X1 = O=C([C@H]1COCCN1[*:1])[*:2]; dHyp = O=C(O)[C@H]1C[C@H](O)CN1; NMeL = CN[C@@H](CC(C)C)C(=O)O; NMehSer = CN[C@@H](CCO)C(=O)O; NMeNle = CCCC[C@H](NC)C(=O)O; ξY = NC(Cc1ccc(O)cc1)C(=O)O; dPip = O=C(O)[C@H]1CCCCN1; hSer = N[C@@H](CCO)C(=O)O; NMeA = CN[C@@H](C)C(=O)O; Orn = NCCC[C@H](N)C(=O)O; dNMeA = CN[C@H](C)C(=O)O; Dap = NC[C@H](N)C(=O)O; ξC = NC(CS)C(=O)O

Target: T1, Human PD-L1/PD-1 (Homo sapiens, UniProt Q9NZQ7)
T1 construct: TVMV protease cleavage site (C); made in house; host or cells: HEK293T cells
T1 sequence (Q9NZQ7 with tags, fused parts or gaps): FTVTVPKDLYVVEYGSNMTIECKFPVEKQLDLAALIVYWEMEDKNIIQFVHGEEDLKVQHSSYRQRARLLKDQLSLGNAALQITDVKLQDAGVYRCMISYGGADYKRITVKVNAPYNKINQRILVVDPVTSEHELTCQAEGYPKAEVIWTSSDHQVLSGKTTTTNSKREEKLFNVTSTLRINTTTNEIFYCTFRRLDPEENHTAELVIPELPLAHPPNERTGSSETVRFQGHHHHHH
Assay: HTRF Human PD-L1/PD-1 binding assay (PD-1-Ig/PD-L1-His)
Details: PD-L1-His 10 nM, PD-1-Ig 20 nM
How it was run: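 Truncated Fc-fused human PD-1 (aa 25-167) at 20 nM and His-tagged PD-L1 (aa 18-239) at 10 nM final are used, with peptides preincubated 15 min with PD-L1. Detection uses europium-cryptate anti-Ig and APC anti-His antibodies; 665/620 nm ratio.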

[1] = class symbol, read-out: HTRF Human PD-L1/PD-1 Binding Assay IC50 Range

Compound | IC50 [1] [nM] | IC50 (read-out: HTRF Human PD-L1/PD-1 Binding Assay IC50) [nM]
CCCC[C@H]1C(=O)N2C[C@H](O)C[C@@H]2C(=O)N[C@@H](CC(=O)O)C(=O)N[C@@H](C(C)C)C(=O)N(C)[C@@H](Cc2ccccc2)C(=O)N[C@@H](CC(N)=O)C(=O)N2C[C@H](O)C[C@@H]2C(=O)N[C@@H](Cc2c[nH]c3ccccc23)C(=O)NC(Cc2ccc(O)cc2)C(=O)N[C@@H](CCC(=O)O)C(=O)N[C@H](C(=O)NCC(N)=O)CSCC(=O)N[C@@H](Cc2ccc(F)c(F)c2)C(=O)N(C)[C@@H](Cc2ccccc2)C(=O)N1C (some centres unmarked) [Example 9317] ({CH2CO}-[Phe(3,4-F2)][NMeF][NMeNle][d(cisHyp)]DV[NMeF]N[d(cisHyp)]W[ξY]ECG-NH2; thioether N-13) | 1 to 9.9 | –
CCCC[C@H]1C(=O)N(C)[C@@H](CCCC)C(=O)N[C@@H](CC(=O)O)C(=O)N[C@H](C(N)=O)CSCC(=O)N[C@@H](Cc2ccc(O)cc2)C(=O)N(C)[C@@H](C)C(=O)N[C@@H](CC(N)=O)C(=O)N2CCC[C@H]2C(=O)N[C@@H](CN)C(=O)N[C@@H](CC(C)C)C(=O)N2C[C@H](O)C[C@H]2C(=O)N[C@@H](Cc2c[nH]c3ccccc23)C(=O)N[C@@H](CO)C(=O)N[C@@H](Cc2cn(CC(=O)O)c3ccccc23)C(=O)N1C [Example 6334] ({CH2CO}-Y[NMeA]NP[Dap]L[Hyp]WS[Trp(1-CH2COOH)][NMeNle][NMeNle]DC-NH2; thioether N-14) | 1 to 9.9 | –
CCCC[C@H]1C(=O)N(C)[C@@H](CCCC)C(=O)N[C@@H](CCC(=O)O)C(=O)NC(C(=O)NCC(N)=O)CSCC(=O)N[C@@H](Cc2ccc(O)cc2)C(=O)N(C)[C@@H](C)C(=O)N[C@@H](CC(N)=O)C(=O)N2CCC[C@H]2C(=O)N[C@@H](CC(N)=O)C(=O)N[C@@H](CC(C)C)C(=O)N2C[C@H](O)C[C@H]2C(=O)N[C@@H](Cc2c[nH]c3ccccc23)C(=O)N[C@@H](CC(=O)O)C(=O)N[C@@H](Cc2c[nH]c3ccccc23)C(=O)N1C (some centres unmarked) [Example 9173] ({CH2CO}-Y[NMeA]NPNL[Hyp]WDW[NMeNle][NMeNle]E[ξC]G-NH2; thioether N-14) | 100 to 990 | –
CCCC[C@H]1C(=O)N2CCC[C@@H]2C(=O)N[C@@H](CC(=O)O)C(=O)N[C@@H](C(C)C)C(=O)N(C)[C@@H](Cc2ccccc2)C(=O)N[C@@H](CCC(=O)O)C(=O)N2CCCC[C@@H]2C(=O)N[C@@H](Cc2c[nH]c3ccccc23)C(=O)N[C@@H](Cc2ccc(O)cc2)C(=O)N[C@@H](CCCN)C(=O)N[C@H](C(=O)NCC(N)=O)CSCC(=O)N[C@@H](Cc2cc(F)c(F)c(F)c2)C(=O)N(C)[C@@H](Cc2ccc(O)cc2)C(=O)N1C [Example 10601] ({CH2CO}-[Phe(3,4,5-F3)][NMeY][NMeNle][dP]DV[NMeF]E[dPip]WY[Orn]CG-NH2; thioether N-13) | 1 to 9.9 | –
CCCC[C@H]1C(=O)N2CCC[C@@H]2C(=O)N[C@@H](CC(=O)O)C(=O)N[C@@H](C(C)C)C(=O)N(C)[C@@H](CC(C)C)C(=O)N[C@@H](CCC(N)=O)C(=O)N2CCC[C@@H]2C(=O)N[C@@H](Cc2c[nH]c3ccccc23)C(=O)N[C@@H](Cc2ccc(O)cc2)C(=O)N[C@@H](CC(C)C)C(=O)N[C@H](C(=O)NCC(N)=O)CSCC(=O)N[C@@H](Cc2ccc(F)cc2)C(=O)N(C)[C@@H](Cc2ccccc2)C(=O)N1C [Example 9253] ({CH2CO}-[Phe(4-F)][NMeF][NMeNle][dP]DV[NMeL]Q[dP]WYLCG-NH2; thioether N-13) | 1000 to 10000 | –
CCCC[C@H]1C(=O)N2C[C@H](O)C[C@@H]2C(=O)N[C@@H](CC(=O)O)C(=O)N[C@@H](C(C)C)C(=O)N(C)[C@@H](Cc2ccccc2)C(=O)N[C@@H](CCC(=O)O)C(=O)N2C[C@@H](O)C[C@@H]2C(=O)N[C@@H](Cc2c[nH]c3ccccc23)C(=O)N[C@@H](Cc2ccc(O)cc2)C(=O)N[C@@H](CC(C)C)C(=O)N[C@H](C(=O)NCC(N)=O)CSCC(=O)N[C@@H](Cc2cc(F)c(F)c(F)c2)C(=O)N(C)[C@@H](Cc2ccccc2)C(=O)N1C [Example 9373] ({CH2CO}-[Phe(3,4,5-F3)][NMeF][NMeNle][d(cisHyp)]DV[NMeF]E[dHyp]WYLCG-NH2; thioether N-13) | 10 to 99.9 | –
COCC[C@H]1C(=O)N2C[C@@H](O)C[C@@H]2C(=O)N[C@@H](CC(=O)O)C(=O)N[C@@H](C(C)C)C(=O)N(C)[C@@H](Cc2ccccc2)C(=O)N[C@@H](Cc2ccc(O)cc2)C(=O)N2CCOC[C@@H]2C(=O)N[C@@H](Cc2c[nH]c3ccccc23)C(=O)N[C@@H](Cc2ccc(O)cc2)C(=O)N[C@@H](CCCN)C(=O)N[C@H](C(=O)NCC(N)=O)CSCC(=O)N[C@@H](Cc2cc(F)c(F)c(F)c2)C(=O)N(C)[C@@H](Cc2ccccc2)C(=O)N1C [Example 9265] ({CH2CO}-[Phe(3,4,5-F3)][NMeF][NMehSer](Me)[dHyp]DV[NMeF]Y[X1]WY[Orn]CG-NH2; thioether N-13) | 1 to 9.9 | –
CCCC[C@H]1C(=O)N(C)[C@@H](CCCC)C(=O)N[C@@H](CCC(=O)O)C(=O)N[C@H](C(=O)NCC(N)=O)CSCC(=O)N[C@@H](Cc2ccc(O)cc2)C(=O)N(C)[C@@H](C)C(=O)N[C@@H](CC(N)=O)C(=O)N2CCC[C@H]2C(=O)N[C@@H](CO)C(=O)N[C@@H](CCC(=O)O)C(=O)N2C[C@H](O)C[C@H]2C(=O)N[C@@H](Cc2c[nH]c3ccccc23)C(=O)N[C@@H](CO)C(=O)N[C@@H](Cc2c[nH]c3ccccc23)C(=O)N1C [Example 5205] ({CH2CO}-Y[NMeA]NPSE[Hyp]WSW[NMeNle][NMeNle]ECG-NH2; thioether N-14) | 1 to 9.9 | –
CCCC[C@H]1C(=O)N[C@@H](CCC(N)=O)C(=O)N2CCCC[C@@H]2C(=O)N[C@@H](Cc2c[nH]c3ccccc23)C(=O)N[C@@H](Cc2ccc(O)cc2)C(=O)N[C@@H](CCCN)C(=O)N[C@H](C(=O)NCC(N)=O)CSCC(=O)N[C@@H](Cc2ccc(F)cc2)C(=O)N(C)[C@@H](Cc2ccccc2)C(=O)N(C)[C@@H](CCCC)C(=O)N2CCC[C@@H]2C(=O)N[C@@H](CC(=O)O)C(=O)N[C@@H](C(C)C)C(=O)N1C [Example 9218] ({CH2CO}-[Phe(4-F)][NMeF][NMeNle][dP]DV[NMeNle]Q[dPip]WY[Orn]CG-NH2; thioether N-13) | 10 to 99.9 | –
CCCC[C@H]1C(=O)N[C@@H](CC(N)=O)C(=O)N2CCC[C@H]2C(=O)N[C@@H](CO)C(=O)N[C@@H](CCO)C(=O)N2C[C@H](O)C[C@H]2C(=O)N[C@@H](Cc2c[nH]c3ccccc23)C(=O)N[C@@H](CO)C(=O)N[C@@H](Cc2c[nH]c3ccccc23)C(=O)N(C)[C@@H](C)C(=O)N(C)[C@@H](C)C(=O)N[C@@H](CCC(=O)O)C(=O)NC(C(=O)NCC(N)=O)CSCC(=O)N[C@@H](Cc2ccc(O)cc2)C(=O)N1C (some centres unmarked) [Example 10212] ({CH2CO}-Y[NMeNle]NPS[hSer][Hyp]WSW[NMeA][NMeA]E[ξC]G-NH2; thioether N-14) | 1000 to 10000 | –
CC(C)[C@@H]1NC(=O)[C@H](CCC(N)=O)NC(=O)[C@@H](C)N(C)C(=O)[C@H](C)N(C)C(=O)[C@H](Cc2ccccc2)N(C)C(=O)[C@H](Cc2cc(F)c(F)c(F)c2)NC(=O)CSC[C@@H](C(=O)NCC(N)=O)NC(=O)[C@H](CCCN)NC(=O)[C@H](Cc2ccc(O)cc2)NC(=O)[C@H](Cc2c[nH]c3ccccc23)NC(=O)[C@@H](C)N(C)C(=O)[C@H](Cc2ccc(O)cc2)NC(=O)[C@H](Cc2ccccc2)N(C)C1=O [Example 9196] ({CH2CO}-[Phe(3,4,5-F3)][NMeF][NMeA][dNMeA]QV[NMeF]Y[dNMeA]WY[Orn]CG-NH2; thioether N-13) | – | 4.5
